Measurements published in patent US9115151B2, “Substituted 2,10-dihydro-9-oxa-1,2,4A-triazaphenanthren-3-ones and uses thereof” (AbbVie Inc., priority 2012, dated 2015).
Counter-ions that a name gives are not always drawn.

Experiments:
[1] = biological target: T1, PKCα (Homo sapiens, UniProt P17252); assay: In vitro enzyme assay (time-resolved fluorescence kinase assay), PKCα, 100 μM ATP; type: biochemical; settings: 100 μM ATP; read-out: PKCα enzyme IC50
T1 construct: His6; purchased Millipore; host or cells: baculovirus in Sf21 cells
In short: (§1)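 Read-out was time-resolved fluorescence, corrected for a minus-enzyme blank and converted to percent activity relative to enzyme without drug. They were stopped with EDTA.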

[2] = biological target: T2, PKCθ (Homo sapiens, UniProt Q04759); assay: In vitro enzyme assay (time-resolved fluorescence kinase assay), PKCθ, 100 μM ATP; type: biochemical
T2 construct: His6; purchased Millipore; host or cells: baculovirus in Sf21 cells
T2 sequence (Q04759 whole entry): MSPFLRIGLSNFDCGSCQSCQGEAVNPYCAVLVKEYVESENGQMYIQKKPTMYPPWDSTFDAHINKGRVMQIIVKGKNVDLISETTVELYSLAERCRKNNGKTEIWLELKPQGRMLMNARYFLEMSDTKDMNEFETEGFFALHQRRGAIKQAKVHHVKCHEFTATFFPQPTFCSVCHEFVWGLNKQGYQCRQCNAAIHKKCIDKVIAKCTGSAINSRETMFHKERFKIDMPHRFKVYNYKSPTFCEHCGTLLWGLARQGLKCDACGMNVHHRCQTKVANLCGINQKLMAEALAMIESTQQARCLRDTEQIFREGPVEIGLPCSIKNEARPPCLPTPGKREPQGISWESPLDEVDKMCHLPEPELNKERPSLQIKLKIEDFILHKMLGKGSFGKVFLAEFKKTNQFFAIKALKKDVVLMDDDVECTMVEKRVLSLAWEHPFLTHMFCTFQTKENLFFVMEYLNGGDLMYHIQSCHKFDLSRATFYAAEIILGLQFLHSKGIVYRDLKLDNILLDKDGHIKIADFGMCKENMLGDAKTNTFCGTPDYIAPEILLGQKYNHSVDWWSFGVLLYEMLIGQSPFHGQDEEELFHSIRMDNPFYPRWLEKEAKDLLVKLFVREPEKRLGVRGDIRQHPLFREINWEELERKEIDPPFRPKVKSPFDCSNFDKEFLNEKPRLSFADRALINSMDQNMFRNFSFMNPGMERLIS
In short: as §1

[3] = tested on: CD3/CD28 induced IL-2 in human T-Blasts; assay: T-Blasts CD3/CD28 induced IL-2 assay; type: cell-based; settings: read-out: CD3/CD28-stimulated IL2 in T-blasts EC50
In short: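 IL-2 in supernatants read after 24 h 37° C stimulation of human PHA T-blasts (2×10^5/well) with anti-CD3/anti-CD28 at 5 μg/mL final. Duplicate eight-point, 1/3-step compound series added 30 min before stimulus; residual cells checked by MTT for toxicity.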

## C[C@@H]1C(=O)NN=C2COc3cc4c(cc3N21)N([C@@H]1CCNC1)CC4 [Example 153, (R)-1-Methyl-10-(R)-pyrrolidin-3-yl-3,5,9,10-tetrahydro-8H-6-oxa-3,4,10,11b-tetraaza-cyclopenta[b]phenanthren-2-one hydrochloric acid]
[1]
  IC50: 1 to 10 µM
[2]
  IC50: 0.25 to 1 µM
[3]
  EC50: 1 to 10 µM

## C[C@@H]1C(=O)NN=C2COc3cc4c(cc3N21)N([C@H]1CCNC1)CC4 [Example 154, (R)-1-Methyl-10-(S)-pyrrolidin-3-yl-3,5,9,10-tetrahydro-8H-6-oxa-3,4,10,11b-tetraaza-cyclopenta[b]phenanthren-2-one hydrochloric acid]
[1]
  IC50: 1 to 10 µM
[2]
  IC50: < 0.25 µM
[3]
  EC50: 0.25 to 1 µM

## CC(=O)N1CC(C)(n2ccc3cc4c(cc32)N2C(=NNC(=O)[C@H]2C)CO4)C1 [Example 155, (R)-10-(1-Acetyl-3-methyl-azetidin-3-yl)-1-methyl-3,5-dihydro-10H-6-oxa-3,4,10,11b-tetraaza-cyclopenta[b]phenanthren-2-one hydrochloric acid]
[1]
  IC50: 1 to 10 µM
[2]
  IC50: < 0.25 µM
[3]
  EC50: 0.25 to 1 µM

## CCc1cn(C2(C)CNC2)c2cc3c(cc12)OCC1=NNC(=O)[C@@H](C)N13 [Example 156, (R)-8-Ethyl-1-methyl-10-(3-methyl-azetidin-3-yl)-3,5-dihydro-10H-6-oxa-3,4,10,11b-tetraaza-cyclopenta[b]phenanthren-2-one hydrochloride]
[1]
  IC50: 1 to 10 µM
[2]
  IC50: < 0.25 µM
[3]
  EC50: 0.25 to 1 µM

## Cc1cn(C2(C)CNC2)c2cc3c(cc12)OCC1=NNC(=O)[C@@H](C)N13 [Example 157]
[1]
  IC50: 0.25 to 1 µM
[2]
  IC50: < 0.25 µM
[3]
  EC50: < 0.25 µM

## CC1C(=O)NN=C2COc3cc4c(cc3N21)N(C1(C)CNC1)CC4 (stereo not drawn) [Example 158, 1-Methyl-10-(3-methyl-azetidin-3-yl)-3,5,9,10-tetrahydro-8H-6-oxa-3,4,10,11b-tetraaza-cyclopenta[b]phenanthren-2-one 2,2,2-trifluoroacetate]
[1]
  IC50: 1 to 10 µM
[2]
  IC50: < 0.25 µM
[3]
  EC50: < 0.25 µM

## C[C@@H]1C(=O)NN=C2COc3cc4c(cc3N21)N(C1(C)CNC1)CC4 [Example 159, 1-Methyl-10-(3-methyl-azetidin-3-yl)-3,5,9,10-tetrahydro-8H-6-oxa-3,4,10,11b-tetraaza-cyclopenta[b]phenanthren-2-one hydrochloride]
[1]
  IC50: 1 to 10 µM
[2]
  IC50: < 0.25 µM
[3]
  EC50: < 0.25 µM

## C[C@@H]1C(=O)NN=C2COc3cc4ccn(C5(C)CN(C)C5)c4cc3N21 [Example 160, (R)-10-(1,3-Dimethyl-azetidin-3-yl)-1-methyl-3,5-dihydro-10H-6-oxa-3,4,10,11b-tetraaza-cyclopenta[b]phenanthren-2-one hydrochloride]
[1]
  IC50: 0.25 to 1 µM
[2]
  IC50: < 0.25 µM
[3]
  EC50: < 0.25 µM

## C[C@H]1C(=O)NN=C2COc3cc4ccn([C@@]5(C)CCNC5)c4cc3N21 [Example 162, (S)-1-Methyl-10-((S)-3-methyl-pyrrolidin-3-yl)-3,5-dihydro-10H-6-oxa-3,4,10,11b-tetraaza-cyclopenta[b]phenanthren-2-one]
[1]
  IC50: 0.25 to 1 µM
[2]
  IC50: < 0.25 µM
[3]
  EC50: < 0.25 µM

## C[C@@H]1C(=O)NN=C2COc3cc4ccn([C@@]5(C)CCNC5)c4cc3N21 [Example 163, (R)-1-Methyl-10-((S)-3-methyl-pyrrolidin-3-yl)-3,5-dihydro-10H-6-oxa-3,4,10,11b-tetraaza-cyclopenta[b]phenanthren-2-one]
[1]
  IC50: < 0.25 µM
[2]
  IC50: < 0.25 µM
[3]
  EC50: < 0.25 µM

## C[C@@H]1C(=O)NN=C2COc3cc4ccn([C@]5(C)CCNC5)c4cc3N21 [Example 164, (R)-1-Methyl-10-((R)-3-methyl-pyrrolidin-3-yl)-3,5-dihydro-10H-6-oxa-3,4,10,11b-tetraaza-cyclopenta[b]phenanthren-2-one]
[1]
  IC50: 1 to 10 µM
[2]
  IC50: < 0.25 µM
[3]
  EC50: 0.25 to 1 µM

## CCN(c1cc2c(cc1-c1ccccc1F)OCC1=NNC(=O)C(C)N12)C1(C)CN(C)C1 (stereo not drawn) [Example 166, 6-[(1,3-Dimethyl-azetidin-3-yl)-ethyl-amino]-7-(2-fluoro-phenyl)-4-methyl-2,10-dihydro-9-oxa-1,2,4a-triaza-phenanthren-3-one hydrochloride acid]
[1]
  IC50: < 0.25 µM
[2]
  IC50: < 0.25 µM
[3]
  EC50: < 0.25 µM

## Cc1ccc(-c2cc3c(cc2N(C)C2(C)CN(C)C2)N2C(=NNC(=O)C2C)CO3)cc1 (stereo not drawn) [Example 167]
[1]
  IC50: 0.25 to 1 µM
[2]
  IC50: < 0.25 µM
[3]
  EC50: < 0.25 µM

## CC1C(=O)NN=C2COc3cc(-c4ccc(F)cc4)c(N(C)C4(C)CN(C)C4)cc3N21 (stereo not drawn) [Example 168]
[1]
  IC50: 0.25 to 1 µM
[2]
  IC50: < 0.25 µM
[3]
  EC50: < 0.25 µM

## CC1C(=O)NN=C2COc3cc(-c4cccc(F)c4)c(N(C)C4(C)CN(C)C4)cc3N21 (stereo not drawn) [Example 169]
[1]
  IC50: 0.25 to 1 µM
[2]
  IC50: < 0.25 µM
[3]
  EC50: < 0.25 µM

## CC1C(=O)NN=C2COc3cc(-c4cccc(C#N)c4)c(N(C)C4(C)CN(C)C4)cc3N21 (stereo not drawn) [Example 170]
[1]
  IC50: 1 to 10 µM
[2]
  IC50: < 0.25 µM
[3]
  EC50: < 0.25 µM

## CC1C(=O)NN=C2COc3cc(-c4ccco4)c(N(C)C4(C)CN(C)C4)cc3N21 (stereo not drawn) [Example 171]
[1]
  IC50: 1 to 10 µM
[2]
  IC50: < 0.25 µM
[3]
  EC50: < 0.25 µM

## Cc1cccc(-c2cc3c(cc2N(C)C2(C)CN(C)C2)N2C(=NNC(=O)C2C)CO3)c1 (stereo not drawn) [Example 172]
[1]
  IC50: 0.25 to 1 µM
[2]
  IC50: < 0.25 µM
[3]
  EC50: < 0.25 µM

## CC1C(=O)NN=C2COc3cc(-c4ccoc4)c(N(C)C4(C)CN(C)C4)cc3N21 (stereo not drawn) [Example 173]
[1]
  IC50: 1 to 10 µM
[2]
  IC50: < 0.25 µM
[3]
  EC50: 0.25 to 1 µM

## CC1C(=O)NN=C2COc3cc(-c4ccc(C#N)cc4)c(N(C)C4(C)CN(C)C4)cc3N21 (stereo not drawn) [Example 174]
[1]
  IC50: 1 to 10 µM
[2]
  IC50: < 0.25 µM
[3]
  EC50: 0.25 to 1 µM

## C[C@@H]1C(=O)NN=C2COc3cc(-c4ccccc4CO)c(N(C)C4(C)CN(C)C4)cc3N21 [Example 176]
[1]
  IC50: 0.25 to 1 µM
[2]
  IC50: < 0.25 µM
[3]
  EC50: < 0.25 µM

## C[C@@H]1C(=O)NN=C2COc3cc(-c4ccccc4Cl)c(N(C)C4(C)CN(C)C4)cc3N21 [Example 177]
[1]
  IC50: 0.25 to 1 µM
[2]
  IC50: < 0.25 µM
[3]
  EC50: < 0.25 µM

## C[C@@H]1C(=O)NN=C2COc3cc(-c4ccc(F)cc4F)c(N(C)C4(C)CN(C)C4)cc3N21 [Example 178]
[1]
  IC50: 0.25 to 1 µM
[2]
  IC50: < 0.25 µM
[3]
  EC50: < 0.25 µM

## C[C@@H]1C(=O)NN=C2COc3cc(-c4cccc(CO)c4)c(N(C)C4(C)CN(C)C4)cc3N21 [Example 179]
[1]
  IC50: 0.25 to 1 µM
[2]
  IC50: < 0.25 µM
[3]
  EC50: < 0.25 µM

## C[C@@H]1C(=O)NN=C2COc3cc(-c4ccccc4CCO)c(N(C)C4(C)CN(C)C4)cc3N21 [Example 180]
[1]
  IC50: 1 to 10 µM
[2]
  IC50: < 0.25 µM
[3]
  EC50: < 0.25 µM

## COCc1ccccc1-c1cc2c(cc1N(C)C1(C)CN(C)C1)N1C(=NNC(=O)[C@H]1C)CO2 [Example 181]
[1]
  IC50: 1 to 10 µM
[2]
  IC50: < 0.25 µM
[3]
  EC50: 0.25 to 1 µM

## C[C@@H]1C(=O)NN=C2COc3cc(C4=CCC(F)(F)CC4)c(N(C)C4(C)CN(C)C4)cc3N21 [Example 182]
[1]
  IC50: 1 to 10 µM
[2]
  IC50: < 0.25 µM
[3]
  EC50: 0.25 to 1 µM

## CC(=O)N1CC(C)(N(C)c2cc3c(cc2-c2ccccc2F)OCC2=NNC(=O)[C@@H](C)N23)C1 [Example 183, (R)-6-[(1-Acetyl-3-methyl-azetidin-3-yl)-methyl-amino]-7-(2-fluoro-phenyl)-4-methyl-2,10-dihydro-9-oxa-1,2,4a-triaza-phenanthren-3-one]
[1]
  IC50: 1 to 10 µM
[2]
  IC50: < 0.25 µM
[3]
  EC50: 0.25 to 1 µM

## C[C@@H]1C(=O)NN=C2COc3cc(-c4ccccc4F)c(N(C)C4(C)CN(C(=O)CO)C4)cc3N21 [Example 184]
[1]
  IC50: 1 to 10 µM
[2]
  IC50: < 0.25 µM
[3]
  EC50: 0.25 to 1 µM

## C[C@@H]1C(=O)NN=C2COc3cc(-c4ccccc4F)c(N(C)C4(C)CN(C(=O)CCN(C)C)C4)cc3N21 [Example 185]
[1]
  IC50: 0.25 to 1 µM
[2]
  IC50: < 0.25 µM
[3]
  EC50: < 0.25 µM

## C[C@@H]1C(=O)NN=C2COc3cc(-c4ccccc4F)c(N(C)C4(C)CN(C(=O)C(F)(F)F)C4)cc3N21 [Example 186]
[1]
  IC50: 1 to 10 µM
[2]
  IC50: 0.25 to 1 µM
[3]
  EC50: 0.25 to 1 µM

## C[C@@H]1C(=O)NN=C2COc3cc(-c4ccccc4F)c(N(C)C4(C)CN(C(=O)CN(C)C)C4)cc3N21 [Example 187]
[1]
  IC50: 1 to 10 µM
[2]
  IC50: < 0.25 µM
[3]
  EC50: 0.25 to 1 µM

## C[C@H](O)CN1CC(C)(N(C)c2cc3c(cc2-c2ccccc2F)OCC2=NNC(=O)[C@@H](C)N23)C1 [Example 188]
[1]
  IC50: < 0.25 µM
[2]
  IC50: < 0.25 µM
[3]
  EC50: < 0.25 µM

## C[C@@H]1C(=O)NN=C2COc3cc(-c4ccccc4F)c(N(C)C4(C)CN(C[C@@H](C)O)C4)cc3N21 [Example 189]
[1]
  IC50: 0.25 to 1 µM
[2]
  IC50: < 0.25 µM
[3]
  EC50: < 0.25 µM

## C[C@@H]1C(=O)NN=C2COc3cc(-c4ccccc4F)c(N(C)C4(C)CN(CC(C)(C)O)C4)cc3N21 [Example 190]
[1]
  IC50: 0.25 to 1 µM
[2]
  IC50: < 0.25 µM
[3]
  EC50: < 0.25 µM

## C[C@@H]1C(=O)NN=C2COc3cc(-c4ccccc4F)c(N(C)C4(C)CN(CCO)C4)cc3N21 [Example 191]
[1]
  IC50: 0.25 to 1 µM
[2]
  IC50: < 0.25 µM
[3]
  EC50: < 0.25 µM

## COCCN1CC(C)(N(C)c2cc3c(cc2-c2ccccc2F)OCC2=NNC(=O)[C@@H](C)N23)C1 [Example 192]
[1]
  IC50: 0.25 to 1 µM
[2]
  IC50: < 0.25 µM
[3]
  EC50: < 0.25 µM

## C[C@@H]1C(=O)NN=C2COc3cc(-c4ccccc4F)c(N(C)C4(C)CN(CCC(F)(F)F)C4)cc3N21 [Example 193]
[1]
  IC50: 1 to 10 µM
[2]
  IC50: < 0.25 µM
[3]
  EC50: 0.25 to 1 µM

## C[C@@H]1C(=O)NN=C2COc3cc(-c4ccccc4F)c(N(C)C4(C)CN(C5COC5)C4)cc3N21 [Example 194]
[1]
  IC50: 0.25 to 1 µM
[2]
  IC50: < 0.25 µM
[3]
  EC50: 0.25 to 1 µM
